Reference: paper PMC8590286, “A novel CD123-targeted therapeutic peptide loaded by micellar delivery system combats refractory acute myeloid leukemia” (Journal of Hematology & Oncology, 2021)
Counter-ions that a name gives are not always drawn.

Key:
AE & CKIT^D816V mice = assay: Survival experiments of Ara-C or HHT in AE & CKIT^D816V AML mice; format: in vivo, mouse; conditions: for median survival of AML mice treated with Ara-C: 25, 50 and 100 mg/kg i.p. daily for 4 days from day 9, versus Con, n=9; for median survival of AML mice treated with HHT: 250 μg/kg i.p. every 2 days from day 9, n=8
Description: The regimen of cytarabine hydrochloride (Ara-C): On day 9 after AE & CKIT^D816V cells implantation, the mice were randomly divided into 4 groups (n=9) including Con (5% glucose), 25, 50 and 100 mg/kg Ara-C. All mice were treated with daily intraperitoneal (i.p.) injections for 4 days and stopped. The survival of the mice was recorded every day.
The regimen of homoharringtonine (HHT): On day 9 after AE & CKIT^D816V cells implantation, the mice were randomly divided into 2 groups (n=8) and i.p. injected with 5% glucose and 250 μg/kg HHT. The administration was given every 2 days. The survival of the mice was recorded every day.
Fig. S7. Therapeutic efficacy of Ara-C or HHT in AE & CKIT^D816V mice. (A) The median survival of AML mice treated with Ara-C was not prolonged compared with the Con group (n=9). […] On day 9 after AE & CKIT^D816V cells implantation, AML mice were treated with i.p. injection of 5% glucose, Ara-C (25, 50 and 100 mg/kg) or HHT (250 μg/kg) as the regimens described.

[1] = test system: CD123^+ AML cell line MOLM-13 cells; assay: Flow cytometry binding of FITC-labeled peptide/micelles to MOLM-13 cells; format: cell-based, human; conditions: 0.1 and 0.5 μM, 0.5 h
Description: Fig. 1 A Affinity of ^mPO-6 to MOLM-13 cells incubated at 0.1 and 0.5 μM for 0.5 h. B Images of ^mPO-6 bound with MOLM-13 cells at 0.1 μM for 0.5 h obtained from the laser confocal microscopy. C Effects of ^mPO-6 on the cell viability in the presence of IL-3 (n = 4). D and E Effects of ^mPO-6 on the cell viability of the primary AML blasts.
(§1) Fig. S1. Affinity of PO-6 and ^mPO-6 to different leukemia cells. The MOLM-13, K562 or HL-60 cells was incubated with PO-6 or ^mPO-6 at 0.1 and 0.5 μM for 0.5 h. Resulting cells were collected and subjected to C6 Accuri® flow cytometer.
(§2) MOLM-13, HL-60 and K562 cells of 4×10^5/mL were incubated with FITC-labeled PO-6 or ^mPO-6 at 0.1 μM and 0.5 μM for 0.5 h. After twice washed with PBS, subjected to C6 Accuri® flow cytometer (Accuri Cytometers, Ann Arbor, MI) and 1×10^4 cells were collected. Acquired data were analyzed by CFlow Plus software.

[2] = test system: CD123^− AML cell line HL-60; assay: Flow cytometry binding of FITC-labeled peptide to HL-60 cells; format: cell-based, human; conditions: 0.1 and 0.5 μM, 0.5 h
Description: as §1, §2

[3] = test system: chronic myeloid leukemia cell line K562 cells; assay: Flow cytometry binding of FITC-labeled peptide to K562 cells; format: cell-based, human; conditions: 0.1 and 0.5 μM, 0.5 h
Description: as §1, §2

Compound: Nc1ccn([C@@H]2O[C@H](CO)[C@@H](O)[C@@H]2O)c(=O)n1 [cytarabine hydrochloride]
- median survival of AML mice treated with Ara-C (AE & CKIT^D816V mice): did not respond
- median survival of AML mice treated with Ara-C (AE & CKIT^D816V mice; listed as Ara-C): not prolonged

Compound: COC(=O)C[C@](O)(CCCC(C)(C)O)C(=O)O[C@@H]1C(OC)=C[C@]23CCCN2CCc2cc4c(cc2[C@H]13)OCO4 [homoharringtonine]
- median survival of AML mice treated with HHT (AE & CKIT^D816V mice): did not respond
- median survival of AML mice treated with HHT (AE & CKIT^D816V mice; listed as HHT): did not prolong the AML mice median survival significantly

Compound: DDDYDTRAQGTDIGCDFRRISDDD [PO-6]
- binding to MOLM-13 cells [1]: effectively bind
- binding to HL-60 cells [2]: weakly bind
- binding to K562 cells [3]: weakly bind
